Tests used:
[1] = system: CAM75 and Ng-CAM fragment in hippocampus; assay: In vivo detection of NMDA receptor mediated CAM cleavage after kainate seizures; parameters: species or system rat
Experimental: Adult male rats were injected systemically with either: 10 mg/kg kainate (pH 7.4), 10 mg/kg kainate and 60 mg/kg ketamine (plus a second injection of 30 mg/kg ketamine one hour later), or saline. Behavioral responses were monitored (all animals in both sets injected with kainate reached seizure stages 4 or 5) and after two hours rats were anaesthetized, their hippocampi rapidly extracted and submerged in ice-cold buffer (10 mM Tris-base, 100 mM NaCl, 2 mM EDTA, and 2 mM EGTA; pH 7.4), homogenized on ice for 1 min in 5 mls of the same buffer, and then centrifuged for 3 min. at 1000 g (4° C.). The pellet was discarded and fractions of the resulting supernatants were immediately ultracentrifuged. Protein normalization and immunoblotting techniques were completed as described above. Quantification of CAM75 and the Ng-CAM fragment involved normalization of the immunoreactivity levels observed in saline injected rats to 100 percent (n=7-11; mean±S.E.M. for all groups).
Evidence for seizure induced extracellular cleavage at the consensus serine protease site was also obtained for a second adhesion molecule. Specifically, concentrations of an 80 kDa polypeptide detected by antibodies against Ng-CAM were increased by 603±140% (n=4, p=0.023) in ultrasupematant fractions from kainate injected rats.

[2] = target: T1, tissue plasminogen activator (tPA) (Homo sapiens, UniProt P00750); assay: Incubation of synthetic substrates with tPA; type: biochemical
T1 construct: purchased Sigma
T1 sequence (P00750 311-562 limits assumed, species assumed): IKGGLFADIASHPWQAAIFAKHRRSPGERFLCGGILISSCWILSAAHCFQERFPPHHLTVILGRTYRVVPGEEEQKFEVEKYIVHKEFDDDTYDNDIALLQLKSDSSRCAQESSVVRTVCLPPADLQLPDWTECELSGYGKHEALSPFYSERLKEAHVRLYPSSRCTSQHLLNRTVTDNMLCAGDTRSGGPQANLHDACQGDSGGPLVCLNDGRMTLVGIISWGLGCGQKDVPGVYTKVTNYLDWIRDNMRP
T1 sequence (P00750 36-310 partner limits assumed, species assumed): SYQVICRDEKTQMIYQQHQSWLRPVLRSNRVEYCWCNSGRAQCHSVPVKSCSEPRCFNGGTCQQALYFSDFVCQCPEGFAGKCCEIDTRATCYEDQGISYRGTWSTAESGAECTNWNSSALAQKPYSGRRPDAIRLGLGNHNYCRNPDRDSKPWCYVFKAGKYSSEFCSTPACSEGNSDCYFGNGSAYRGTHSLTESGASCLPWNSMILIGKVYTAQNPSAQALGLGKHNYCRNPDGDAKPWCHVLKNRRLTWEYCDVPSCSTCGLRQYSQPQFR
Experimental: 1.5 μg/ml of tissue plasminogen activator (tPA, two chain, Sigma) was incubated at 23 ° C. with 40 μM ASLA- and A-AMC substrates (with or without the inhibitor AEBSF) in a final volume of 1.3 mls aCSF. After one hour of incubation the samples were put in the fluorometer and quantification of proteolytic activity normalized the readings from the A-AMC substrate to 100 (arbitrary units).

[3] = system: CAM75 (75 kDa cell adhesion molecule fragment) generation by serine protease; assay: Incubation of hippocampal homogenates, CAM75 fragment by immunoblot; type: biochemical, rat; details: membranes incubated for one hour with 500 μM inhibitor; controls 45±8%; n=3-5, p=0.03
Experimental: Hippocampi were rapidly extracted from adult male Sprague-Dawley rats and submerged in ice-cold buffer (10 mM Tris-base, 100 mM NaCl; pH 7.4) homogenized on ice for 1 min in 5 mls of the same buffer and then centrifuged for 3 min. at 1000 g (4° C.). The pellet was discarded and the resulting supernatant was immediately incubated at 37° C. with or without EDTA, EGTA, or AEBSF. After incubation, samples were ultracentrifuged (as above) and processed for immunoblotting. Quantification of immunoblots was performed by densitometry with normalization of the immunoreactivity levels at 0 minutes to 100 percent (n=4 or 5; mean±S.E.M. for all time points).
Similar results are obtained with brain homogenates, where a 65 kDa fragment and CAM75 are produced upon incubation in the presence of EDTA or EGTA (see FIG. 1). As noted, fragments similar in size to CAM75 are generated by cleavage of any of several NCAM relatives by serine-type proteases. That CAM75 also arises from an enzyme of this type was confirmed with the selective inhibitor 4-(2-Aminoethyl)-benzenesulfonyl fluoride (AEBSF); a 12±8% increase in the fragment occurred in membranes incubated for one hour with 500 μM of the inhibitor while a 45±8% increase was obtained in controls (n=3-5; p=0.03).

[4] = system: LTP in hippocampal slices (CA1 field EPSPs); assay: Long-term potentiation in hippocampal slices (theta burst stimulation, field EPSPs); type: cell-based, rat
Experimental: Brains from male Sprague-Dawley rats (190-225 g) were rapidly removed and placed into ice cold aCSF. Hippocampi were then cut transversely into 400-μm slices and transferred to a recording chamber perfused with aCSF (35° C.), where they were exposed to a humidified gas mixture of 95% oxygen and 5% carbon dioxide. After an hour recovery period, field recordings were made with a glass recording electrode containing 2 M NaCl positioned in the stratum radiatum of CAlb. NAC (Eclectex Enterprises; Irvine Cailf.) was used to record field EPSPs elicited by delivering single stimulation pulses (0.1 ms, 1-15 μA) to one of two bipolar electrodes positioned in Schaffer-commissural projections in CAla and CAlc. Each projection was stimulated every 20 sec with 10 sec interval between each electrode. After establishing a stable baseline (10-20 min), LTP was induced using a theta burst stimulation (TBS) paradigm [J. Larson et al., Brain Res. 368, 347-350 (1986)] in one pathway. After 30 minutes the perfusion media was switched to one containing 250 μM AEBSF. Forty-five minutes later TBS was applied to the non-potentiated pathway. The AEBSF/aCSF mixture was perfused for an additional 10 minutes, after which regular aCSF was added. In another set of slices TBS stimulation was applied during aCSF perfusion, and five minutes after LTP induction 250 μM AEBSF was infused for the remainder of the experiment. Potentiation for all groups was tabulated as the percent increase above initial baseline slopes.
The magnitude of this effect varied considerably across slices but within slice differences between potentiation elicited before (control) vs. after (experimental) infusion of the drug could not be detected. However, the development of LTP in the minutes following induction was clearly different as is evident in FIG. 5A. […] Mean percent potentiation at this time point was 103±5% for experimental and 134±3% for control pathways (n=6, p=0.005).

[5] = system: seizure-proneness (after-discharge duration); assay: Kindling by repeated electrical stimulation of hippocampus, after-discharge duration; type: in vivo, rat; details: 50 mgs/kg injected once prior to first stimulation; tested 10 days later; control rats ~400%
Experimental: Rats were divided into two groups: Group I rats were injected with 50 mgs/kg AEBSF and Group II (control) rats were injected with saline. The rats of both groups were then stimulated by direct electrical impulses to the dentate gyrus region of the hippocampus (40 times/5 mins apart)(a paradigm known to promote “kindling”, which can be thought of as an increase in seizure-proneness). The after-discharge duration (AD-duration) was then measured in each group. After a 10 day waiting period, the rats were again stimulated (5 times/20 mins apart)(no drugs were administered). The AD-duration was again measured.

[6] = system: pre-existing seizure proneness (after-discharge duration); assay: Restimulation of previously kindled rats (pre-existing seizure proneness), after-discharge duration; type: in vivo, rat; details: AEBSF (50 mgs/ml) injection prior to stimulations
Description: The control group rats from III, above, were restimulated, with four of the rats of this group receiving a saline injection prior to stimulation and the remaining four rats receiving AEBSF (50 mgs/ml) injection prior to stimulations. […] The AD duration average of the control group was 207±103% of their original average, while the AD duration of the AEBSF injected rats was 26±77% of their original average.

[7] = system: endogenous protease(s) found in hippocampal ultrasupernatants; assay: Cleavage of fluorescent AMC substrates by hippocampal ultrasupernatants; type: biochemical, rat; details: 100 μM substrate
Experimental: Hippocampi were rapidly extracted from adult male Sprague-Dawley rats and submerged in ice-cold artificial cerebrospinal fluid (aCSF) which consisted of (in mM): 124 NaCl, 3 KCl, 1.25 KH2PO4, 2.5 MgSO4, 3.4 CaCl2, 26 NaHCO3 and 10 glucose (pH 7.4), homogenized on ice for 1 min in 3 mls of the same buffer and then centrifuged for 5 min. at 1000 g (3° C.). The pellet was discarded and the resulting supernatant was ultracentrifuged at 200,000 g for 20 min. at 3° C. in a TLS-55 rotor (Beckman Instruments). The resulting ultrasupematant fraction was devoid of membrane-bound proteins and therefore represents a soluble protein fraction. This fraction was diluted to 50 μgs/ml in aCSF and incubated at room temperature with 100 μM of arginine linked to a fluorescent amido methyl-coumarin (AMC) substrate (Sigma Chemical Co), or to […] (Enzyme Systems Products; Livermore Cailf.) in the presence of differing concentrations of the serine protease inhibitor AEBSF (4-(2-Aminoethyl)benzenesulfonyl fluoride) (Sigma Chemical Co). Fluorescence was measured in a fluorometer (Sequoia-Turner Corp.) at 430 nm with stimulation at 360 nm. Quantification of proteolytic inhibition was performed by normalization of fluorescence in control tubes (i.e. those without added AEBSF) to 0 percent.
The serine protease substrate arginine-AMC (A-AMC) and a substrate made up of the CAM serine protease target sequence (arginine-serine-lysine-arginine) (ASLA-AMC) were both cleaved when incubated with soluble protein fractions (i.e. ultrasupernatants) from the hippocampus. This assay was then used to identify drugs and dosages that prevent extracellular CAM cleavage by endogenous proteases. The serine protease inhibitor AEBSF (4-(2-Aminoethyl)-benzenesulfonyl fluoride) inhibited proteolysis of the CAM sequence (ASLA-AMC) and did so to a much greater degree than it blocked the proteolysis of A-AMC. At 250 and 1000 uM A-AMC cleavage was blocked by 15 and 33 percent, respectively, while ASLA-AMC proteolysis was blocked by 44 and 70 percent. FIG. 3 (p≦0.0001).

[8] = system: NMDA receptors; assay: NMDA receptor stimulation of organotypic hippocampal cultures, CAM75 immunoblot; type: cell-based, rat
Description: The culture medium (Bahr, et al. “Stable maintenance of glutamate receptors and other synaptic components in long-term hippocampal slices,” Hippocampus 5, 425-439 (1995))(CM) was changed every other day. Slices were maintained in culture for 2-3 weeks and then subjected to a brief NMDA receptor stimulation paradigm (Thibault et al., “Long-lasting physiological effects of bath applied N-methyl-D-aspartate,” Brain Res. 476, 170-173 (1989) and Malenka, “Postsynaptic factors control the duration of synaptic enhancement in area CA 1 of the hippocampus,” Neuron 6, 53-60 (1991)). To activate NMDA receptors the slices were treated with 400 μM NMDA, 2 ; mM CaCl2 (4 mM total) and 1 mM glycine. Control slices were also subjected to this cocktail but were first pretreated for 10 minutes with either 100 μM AP5 (an NMDA antagonist), or with kynurenic acid (2 mM) and MK-801 (100 μM), in CM. After 30 seconds of incubation with the NMDA cocktail, the solutions were removed and CM plus 2 mM AP5 was added to all slices. Tissue was harvested and processed for immunoblotting as described (See Bahr et al., supra). […] Protein concentrations for the non-soluble pellets (i.e. all tissue left after the supernatant was extracted) were determined with a BSA standard curve. […] Quantification of immunobands was determined without knowledge of sample type by densitometry.

Structure (SMILES): C=C(C)[C@H]1CN[C@H](C(=O)O)[C@H]1CC(=O)O [kainic acid]
- CAM75 increase in the hippocampus ([1]; single injection 10 mg/kg, about 45 minutes of periodic seizures, saline = 100 percent, n=11, p=0.0002): 598±85%
- increase of 80 kDa polypeptide detected by antibodies against Ng-CAM ([1]; ultrasupernatant fractions from kainate injected rats, n=4, p=0.023): 603±140%

Structure (SMILES): CNC1(c2ccccc2Cl)CCCCC1=O (centres unmarked) [ketamine]
- effect on kainate-induced CAM75 increase ([1]; 60 mg/kg plus 30 mg/kg one hour later with 10 mg/kg kainate, n=7, p=0.03): substantially reduced this effect

Structure (SMILES): NCCc1ccc(S(=O)(=O)F)cc1 [AEBSF, 4-(2-Aminoethyl)-benzenesulfonyl fluoride]
- proteolytic activity of tPA blocked [2]: potently blocked
- increase in the CAM75 fragment [3]: 12±8%
- Mean percent potentiation ([4]; 250 μM for 45 min before TBS, about one hour post-induction, control pathways 134±3%, n=6, p=0.005): 103±5%
- effect on already established LTP (potentiation over the subsequent hour) ([4]; 250 μM infused five or thirty minutes after induction): no effects on potentiation
- effect on slope, amplitude, or waveform of monosynaptic field EPSPs ([4]; 250 μM infused for forty-five minutes, before TBS): no significant effect
- increase in AD-duration during the second testing period [5]: no increase in AD-duration
- rats with no after discharges (no seizure-like activity) ([6]; four rats): Two out of the four
- AD duration as percent of original average ([6]; tested 10 days after, saline group 207±103%): 26±77%
- A-AMC cleavage blocked ([7]; 250 uM AEBSF): 15%
- ASLA-AMC proteolysis blocked ([7]; 250 uM AEBSF): 44%
- A-AMC cleavage blocked ([7]; 1000 uM AEBSF): 33%
- ASLA-AMC proteolysis blocked ([7]; 1000 uM AEBSF): 70%

Structure (SMILES): CN[C@H](CC(=O)O)C(=O)O [NMDA]
- concentration of CAM75 in soluble fractions versus control tissue ([8]; 30 seconds after a 30 second infusion of NMDA, n=12, p=0.0003): approximately twice
- amount of CAM75 greater than in slices exposed to NMDA and an antagonistic drug ([8]; homogenates after 30 second infusion of NMDA, mean±sd, n=9, p<0.001): 77±41%

Reference: US20030144212A1, “USE OF SERINE PROTEASE INHIBITORS TO INHIBIT PATHOPHYSIOLOGY AND NEUROPATHOLOGY IN A HOST” (priority 2000, published 2003)
